Consider one molecule from ChEMBL document CHEMBL5143537, “Quinazoline-based hydroxamic acid derivatives as dual histone methylation and deacetylation inhibitors for potential anticancer agents” (Bioorg Med Chem, 2022).

Each structure is given as a SMILES string. Calls of active or inactive are those of the source. The rule behind the calls is not given here.

Series [1] addresses Histone deacetylase 1 (Homo sapiens, UniProt Q13547). In words: Inhibition of recombinant human HDAC1 expressed in baculovirus infection system using Ac-peptide-AMC as substrate preincubated for 15 mins followed by substrate addition and measured after 60 mins by fluorescence assay.
The target of series [2] is T1, Histone-lysine N-methyltransferase EHMT1 (Homo sapiens, UniProt Q9H9B1).
T1 sequence (Q9H9B1 whole entry): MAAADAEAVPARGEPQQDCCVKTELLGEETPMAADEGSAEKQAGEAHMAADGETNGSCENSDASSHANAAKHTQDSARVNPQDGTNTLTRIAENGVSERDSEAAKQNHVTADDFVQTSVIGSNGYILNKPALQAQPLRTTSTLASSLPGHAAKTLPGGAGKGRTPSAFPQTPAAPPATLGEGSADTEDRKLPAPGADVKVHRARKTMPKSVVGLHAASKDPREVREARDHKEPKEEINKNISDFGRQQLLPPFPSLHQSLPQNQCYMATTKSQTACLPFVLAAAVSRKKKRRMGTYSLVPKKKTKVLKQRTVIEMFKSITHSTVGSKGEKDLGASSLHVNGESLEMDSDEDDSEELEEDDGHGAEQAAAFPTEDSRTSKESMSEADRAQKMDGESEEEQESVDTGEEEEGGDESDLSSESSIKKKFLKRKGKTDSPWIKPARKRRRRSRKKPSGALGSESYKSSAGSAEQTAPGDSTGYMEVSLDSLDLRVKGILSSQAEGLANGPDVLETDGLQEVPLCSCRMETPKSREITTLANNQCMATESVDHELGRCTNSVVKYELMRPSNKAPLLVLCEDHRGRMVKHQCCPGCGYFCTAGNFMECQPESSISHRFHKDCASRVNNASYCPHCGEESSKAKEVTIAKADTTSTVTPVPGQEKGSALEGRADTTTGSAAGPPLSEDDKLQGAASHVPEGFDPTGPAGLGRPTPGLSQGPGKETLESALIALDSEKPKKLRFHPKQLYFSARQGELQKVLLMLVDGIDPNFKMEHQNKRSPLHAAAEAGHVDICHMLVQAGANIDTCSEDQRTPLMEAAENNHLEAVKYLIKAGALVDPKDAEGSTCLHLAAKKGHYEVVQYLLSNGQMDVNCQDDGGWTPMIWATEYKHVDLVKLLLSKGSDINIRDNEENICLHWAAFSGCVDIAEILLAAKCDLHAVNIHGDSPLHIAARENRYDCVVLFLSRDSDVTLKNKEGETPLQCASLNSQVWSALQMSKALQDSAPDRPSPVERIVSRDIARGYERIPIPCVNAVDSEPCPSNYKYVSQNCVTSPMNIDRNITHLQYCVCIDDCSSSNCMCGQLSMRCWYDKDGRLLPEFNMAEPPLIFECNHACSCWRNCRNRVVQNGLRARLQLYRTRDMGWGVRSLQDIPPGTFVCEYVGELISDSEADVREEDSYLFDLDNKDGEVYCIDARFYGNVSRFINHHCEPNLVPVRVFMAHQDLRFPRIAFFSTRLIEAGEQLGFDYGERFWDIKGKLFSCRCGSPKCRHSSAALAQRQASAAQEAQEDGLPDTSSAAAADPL
In words: Inhibition of GLP (unknown origin).

In series [3] the test system is A-431. As to the kind of experiment: Antiproliferative activity against human A-431 cells measured after 72 hrs by MTT assay. Conditions: A-431, 72 h. Type of series: functional, cell-based. Background: Formazan colour is commonly taken as a measure of viable cells.
Series [4] has as its system HT-29. In words: Antiproliferative activity against human HT-29 cells measured after 72 hrs by MTT assay. Type of series: functional, cell-based. Conditions: HT-29, 72 h.
In series [5] the test system is HeLa. As to the kind of experiment: Antiproliferative activity against human HeLa cells measured after 72 hrs by MTT assay. Type of series: functional, cell-based.
The test system of series [6] is K562. In words: Antiproliferative activity against human K562 cells measured after 72 hrs by MTT assay. Type of series: functional, cell-based. Conditions: K562, 72 h.
Series [7] concerns HepG2. In words: Induction of apoptosis in human HepG2 cells assessed as increase in cleaved PARP expression at 1.25 to 20 uM measured after 48 hrs by Western blot analysis. Type of series: functional, cell-based. Conditions: dose 1.25-20 µM. On the technique in general: Immunoblotting shows a protein as a band on a membrane.
For series [8], the system named is HepG2. As to the kind of experiment: Induction of apoptosis in human HepG2 cells assessed as viable cells at 1.25 uM measured after 48 hrs by Annexin V-FITC/propidium iodide staining based flow cytometry (reference value: 88.58%). Conditions: read-out: Activity. Type of series: functional.
The subject of series [9] is HepG2. As to the kind of experiment: Induction of apoptosis in human HepG2 cells assessed as necrotic cells at 1.25 uM measured after 48 hrs by Annexin V-FITC/propidium iodide staining based flow cytometry (reference value: 0%). Type of series: functional. For orientation: A flow cytometer gives signals particle by particle.
In series [10] the test system is HepG2. In words: Induction of apoptosis in human HepG2 cells assessed as viable cells at 2.5 uM measured after 48 hrs by Annexin V-FITC/propidium iodide staining based flow cytometry (reference value: 88.58%). Type of series: functional. Conditions: read-out: Activity.
Series [11] has as its system HepG2. As to the kind of experiment: Induction of apoptosis in human HepG2 cells assessed as necrotic cells at 2.5 uM measured after 48 hrs by Annexin V-FITC/propidium iodide staining based flow cytometry (reference value: 0%). Type of series: functional.
Series [12] has as its system HepG2. As to the kind of experiment: Induction of apoptosis in human HepG2 cells assessed as early apoptotic cells at 5 uM measured after 48 hrs by Annexin V-FITC/propidium iodide staining based flow cytometry (reference value: 6.87%). Type of series: functional.
Series [13] relates to HepG2. In words: Induction of apoptosis in human HepG2 cells assessed as necrotic cells at 5 uM measured after 48 hrs by Annexin V-FITC/propidium iodide staining based flow cytometry (reference value: 0%). Type of series: functional.
In series [14] the test system is HepG2. In words: Induction of apoptosis in human HepG2 cells assessed as early apoptotic cells at 10 uM measured after 48 hrs by Annexin V-FITC/propidium iodide staining based flow cytometry (reference value: 6.87%). Type of series: functional.
Series [15] deals with HepG2. As to the kind of experiment: Induction of apoptosis in human HepG2 cells assessed as late apoptotic cells at 10 uM measured after 48 hrs by Annexin V-FITC/propidium iodide staining based flow cytometry (reference value: 4.55%). Type of series: functional.
The subject of series [16] is HepG2. As to the kind of experiment: Induction of apoptosis in human HepG2 cells assessed as necrotic cells at 10 uM measured after 48 hrs by Annexin V-FITC/propidium iodide staining based flow cytometry (reference value: 0%). Type of series: functional.
Series [17] relates to HepG2. As to the kind of experiment: Induction of apoptosis in human HepG2 cells assessed as late apoptotic cells at 20 uM measured after 48 hrs by Annexin V-FITC/propidium iodide staining based flow cytometry (reference value: 4.55%). Type of series: functional.
The test system of series [18] is HepG2. As to the kind of experiment: Induction of apoptosis in human HepG2 cells assessed as increase in cleaved caspase-7 expression at 1.25 to 20 uM measured after 48 hrs by Western blot analysis. Type of series: functional, cell-based. Conditions: dose 1.25-20 µM.
Series [19] concerns HepG2. As to the kind of experiment: Cell cycle arrest in human HepG2 cells assessed as accumulation at G0/G1 phase at 2.5 uM measured after 48 hrs by propidium iodide staining based flow cytometry (reference value: 55.24%). Type of series: functional.
In series [20] the test system is HepG2. In words: Cell cycle arrest in human HepG2 cells assessed as accumulation at S phase at 2.5 uM measured after 48 hrs by propidium iodide staining based flow cytometry (reference value: 32.39%). Type of series: functional.
Series [21] relates to HepG2. As to the kind of experiment: Cell cycle arrest in human HepG2 cells assessed as increase in p27 expression measured after 24 hrs by Western blot analysis. Conditions: dose 1.25-20 µM, DDE = dose-dependent effect. Type of series: functional, cell-based.
Series [22] in a line: Metabolic stability in rat liver microsomes assessed as parent compound remaining at 1 uM measured after 15 mins by LC-MS/MS analysis. Conditions: read-out: Stability. Type of series: ADME, Microsome.
A short description of series [23]: Metabolic stability in rat liver microsomes assessed as parent compound remaining at 1 uM measured after 30 mins by LC-MS/MS analysis. Type of series: ADME, Microsome. Conditions: read-out: Stability.

Histone deacetylase 1, sequence (Q13547 whole entry): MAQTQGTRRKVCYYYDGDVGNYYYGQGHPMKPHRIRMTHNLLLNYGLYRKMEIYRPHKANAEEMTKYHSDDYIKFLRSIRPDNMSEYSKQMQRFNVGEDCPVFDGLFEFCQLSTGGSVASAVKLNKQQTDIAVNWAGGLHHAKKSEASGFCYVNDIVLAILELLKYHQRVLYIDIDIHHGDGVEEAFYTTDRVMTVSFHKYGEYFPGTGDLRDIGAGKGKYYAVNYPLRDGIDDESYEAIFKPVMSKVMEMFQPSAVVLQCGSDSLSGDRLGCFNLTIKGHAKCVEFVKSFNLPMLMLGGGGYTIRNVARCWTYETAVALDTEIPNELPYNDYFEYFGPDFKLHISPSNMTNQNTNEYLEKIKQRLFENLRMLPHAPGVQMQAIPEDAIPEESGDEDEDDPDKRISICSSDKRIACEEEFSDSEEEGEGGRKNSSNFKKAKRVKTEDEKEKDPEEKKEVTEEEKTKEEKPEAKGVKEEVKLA

Consider `COc1cc2nc(N3CCN(CCCCCC(=O)NO)CC3)nc(NC3CCN(Cc4ccccc4)CC3)c2cc1OC`, for which the IC50 in series [1] turned out to be 0.089 µM; in series [2], 0.0013 µM; in [3], 2.38 µM; in series [4], 6.99 µM; in [5], 3.34 µM; in [6], 2.6 µM. Also, the outcome in series [7] and in series [18] was Active. Moreover, the viability at 1.25 µM in series [8] stood at 88.5%. Moreover, the Activity in series [9] is 0%; in series [11], 0%; in [12], 8.59%; in series [13], 0%; in series [14], 16.02%; in [15], 6.17%. Moreover, the Activity was 0% in series [16]; 17.12% in series [17]; 57.88% in series [19]; 28.84% in series [20]; “Dde” in series [21]. In series [10], the viability at 2.5 µM was found to be 87.5%. In series [22], the remaining at 0.25 h, 1 µM was 50.2%. The remaining at 0.5 h, 1 µM in [23] was 26.8%.

As usually defined, the IC50 is the concentration at which inhibition is half-maximal.
